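In this assay, cells in 96-well plates receive the compound at five concentrations for 48 hours. Endpoints are linearly interpolated between the surrounding concentrations. GI50: concentration for 50% inhibition of growth.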 Calls of active or inactive are those of the source. Rule as the data show it: active = GI50 up to about 1.1 µM and inactive = higher.
What was measured:
Assay in all cases: inhibition of tumour cell growth, NCI panel, 48 h
786-0 = test system: 786-0
A498 = test system: A498
ACHN = test system: ACHN
IGROV-1 = test system: IGROV-1
K562 = test system: K562
KM12 = test system: KM12
LOX IMVI = test system: LOX IMVI
Malme-3M = test system: Malme-3M
NCI-H226 = test system: NCI-H226
NCI-H23 = test system: NCI-H23
OVCAR-4 = test system: OVCAR-4
OVCAR-8 = test system: OVCAR-8
SF-295 = test system: SF-295
SNB-75 = test system: SNB-75
SR = test system: SR
TK-10 = test system: TK-10
U-251 = test system: U-251
UACC-62 = test system: UACC-62
NCI-H460 = test system: NCI-H460
SK-OV-3 = test system: SK-OV-3

OC1C2CN3CCN(C2)CC1(c1ccccc1)C3 (configuration not stated)
GI50 (786-0): > 100 µM (inactive) | GI50 (A498): > 100 µM (inactive) | GI50 (ACHN): > 100 µM (inactive) | GI50 (IGROV-1): > 100 µM (inactive) | GI50 (K562): > 100 µM (inactive) | GI50 (KM12): > 100 µM (inactive) | GI50 (LOX IMVI): > 100 µM (inactive) | GI50 (Malme-3M): > 100 µM (inactive) | GI50 (NCI-H226): > 100 µM (inactive) | GI50 (NCI-H23): > 100 µM (inactive) | GI50 (OVCAR-4): > 100 µM (inactive) | GI50 (OVCAR-8): > 100 µM (inactive) | GI50 (SF-295): > 100 µM (inactive) | GI50 (SNB-75): > 100 µM (inactive) | GI50 (SR): > 100 µM (inactive) | GI50 (TK-10): > 100 µM (inactive) | GI50 (U-251): > 100 µM (inactive) | GI50 (UACC-62): > 100 µM (inactive)

CSS(C)(=O)=O
GI50 (786-0): 39.6 µM (inactive) | GI50 (A498): > 100 µM (inactive) | GI50 (ACHN): 26.2 µM (inactive) | GI50 (IGROV-1): 23.2 µM (inactive) | GI50 (K562): 31.3 µM (inactive) | GI50 (KM12): 34.3 µM (inactive) | GI50 (LOX IMVI): 60.1 µM (inactive) | GI50 (Malme-3M): 26.9 µM (inactive) | GI50 (NCI-H226): 21.4 µM (inactive) | GI50 (NCI-H23): 19.9 µM (inactive) | GI50 (NCI-H460): > 100 µM (inactive) | GI50 (OVCAR-4): 27.4 µM (inactive) | GI50 (OVCAR-8): 27.4 µM (inactive) | GI50 (SF-295): 23.1 µM (inactive) | GI50 (SNB-75): 32.3 µM (inactive) | GI50 (SR): 15.3 µM (inactive) | GI50 (TK-10): 24.7 µM (inactive) | GI50 (U-251): 37.1 µM (inactive) | GI50 (UACC-62): 19.4 µM (inactive)

c1ccc(-c2ccc(-c3ccc(C4=NCCN4)cc3)o2)cc1
GI50 (786-0): 1.68 µM (inactive) | GI50 (A498): 1.76 µM (inactive) | GI50 (ACHN): 2.95 µM (inactive) | GI50 (IGROV-1): 2.74 µM (inactive) | GI50 (K562): 1.42 µM (inactive) | GI50 (KM12): 1.92 µM (inactive) | GI50 (LOX IMVI): 1.93 µM (inactive) | GI50 (NCI-H226): 2.99 µM (inactive) | GI50 (NCI-H23): 4.32 µM (inactive) | GI50 (NCI-H460): 2.4 µM (inactive) | GI50 (OVCAR-4): 6.11 µM (inactive) | GI50 (OVCAR-8): 3.59 µM (inactive) | GI50 (SF-295): 1.92 µM (inactive) | GI50 (SK-OV-3): 5.36 µM (inactive) | GI50 (SNB-75): 2.38 µM (inactive) | GI50 (SR): 0.773 µM (active) | GI50 (TK-10): 5.41 µM (inactive) | GI50 (U-251): 1.92 µM (inactive) | GI50 (UACC-62): 1.77 µM (inactive)

CC(C)(C)O/N=C/c1cc(NC(=S)c2ccsc2)ccc1Cl
GI50 (786-0): 16.2 µM (inactive) | GI50 (A498): 10.5 µM (inactive) | GI50 (IGROV-1): 16.7 µM (inactive) | GI50 (KM12): 9.89 µM (inactive) | GI50 (LOX IMVI): 16 µM (inactive) | GI50 (Malme-3M): 14.3 µM (inactive) | GI50 (NCI-H226): 14 µM (inactive) | GI50 (NCI-H23): 7.41 µM (inactive) | GI50 (OVCAR-4): 14.6 µM (inactive) | GI50 (OVCAR-8): 13.1 µM (inactive) | GI50 (SF-295): 11.6 µM (inactive) | GI50 (SK-OV-3): 18.7 µM (inactive) | GI50 (SNB-75): 23.6 µM (inactive) | GI50 (SR): 3.36 µM (inactive) | GI50 (TK-10): 13.7 µM (inactive) | GI50 (U-251): 15.7 µM (inactive) | GI50 (UACC-62): 15.5 µM (inactive)

Oc1ccc(/C=N/c2ccccc2O)cc1
GI50 (786-0): 23.3 µM (inactive) | GI50 (A498): > 100 µM (inactive) | GI50 (ACHN): 60.7 µM (inactive) | GI50 (IGROV-1): 54.7 µM (inactive) | GI50 (K562): 24.7 µM (inactive) | GI50 (KM12): 75.3 µM (inactive) | GI50 (LOX IMVI): 26.1 µM (inactive) | GI50 (NCI-H226): 94.6 µM (inactive) | GI50 (NCI-H23): 30.3 µM (inactive) | GI50 (NCI-H460): 38.9 µM (inactive) | GI50 (OVCAR-4): > 100 µM (inactive) | GI50 (OVCAR-8): 39.4 µM (inactive) | GI50 (SF-295): 52.2 µM (inactive) | GI50 (SK-OV-3): > 100 µM (inactive) | GI50 (SNB-75): > 100 µM (inactive) | GI50 (SR): 48.6 µM (inactive) | GI50 (TK-10): 59.7 µM (inactive) | GI50 (U-251): 31.3 µM (inactive) | GI50 (UACC-62): 37.5 µM (inactive)

Cc1nc2ccc(F)cc2c2c1CCO2
GI50 (786-0): > 100 µM (inactive) | GI50 (A498): > 100 µM (inactive) | GI50 (ACHN): > 100 µM (inactive) | GI50 (IGROV-1): > 100 µM (inactive) | GI50 (K562): 41.5 µM (inactive) | GI50 (KM12): > 100 µM (inactive) | GI50 (LOX IMVI): > 100 µM (inactive) | GI50 (Malme-3M): > 100 µM (inactive) | GI50 (NCI-H226): > 100 µM (inactive) | GI50 (NCI-H23): > 100 µM (inactive) | GI50 (NCI-H460): 61.1 µM (inactive) | GI50 (OVCAR-4): > 100 µM (inactive) | GI50 (OVCAR-8): > 100 µM (inactive) | GI50 (SF-295): > 100 µM (inactive) | GI50 (SNB-75): > 100 µM (inactive) | GI50 (SR): > 100 µM (inactive) | GI50 (TK-10): > 100 µM (inactive) | GI50 (U-251): 66.2 µM (inactive) | GI50 (UACC-62): > 100 µM (inactive)

Cc1ccc2c(c1)C(=O)C1(C2)Cc2ccc(C)cc2C1=O
GI50 (786-0): > 100 µM (inactive) | GI50 (A498): > 100 µM (inactive) | GI50 (ACHN): > 100 µM (inactive) | GI50 (IGROV-1): > 100 µM (inactive) | GI50 (K562): > 100 µM (inactive) | GI50 (LOX IMVI): > 100 µM (inactive) | GI50 (Malme-3M): > 100 µM (inactive) | GI50 (NCI-H23): > 100 µM (inactive) | GI50 (NCI-H460): > 100 µM (inactive) | GI50 (OVCAR-4): > 100 µM (inactive) | GI50 (OVCAR-8): > 100 µM (inactive) | GI50 (SF-295): > 100 µM (inactive) | GI50 (SK-OV-3): > 100 µM (inactive) | GI50 (SNB-75): > 100 µM (inactive) | GI50 (SR): > 100 µM (inactive) | GI50 (TK-10): > 100 µM (inactive) | GI50 (U-251): 71.8 µM (inactive)

CN(C)CC/C(=N\Nc1ccc(Cl)c(Cl)c1)c1ccccc1
GI50 (786-0): 1.71 µM (inactive) | GI50 (A498): 2.81 µM (inactive) | GI50 (ACHN): 1.69 µM (inactive) | GI50 (IGROV-1): 2.18 µM (inactive) | GI50 (K562): 1.93 µM (inactive) | GI50 (KM12): 2.05 µM (inactive) | GI50 (LOX IMVI): 1.69 µM (inactive) | GI50 (Malme-3M): 3.24 µM (inactive) | GI50 (NCI-H23): 1.84 µM (inactive) | GI50 (NCI-H460): 1.85 µM (inactive) | GI50 (OVCAR-4): 2.58 µM (inactive) | GI50 (OVCAR-8): 1.87 µM (inactive) | GI50 (SF-295): 1.9 µM (inactive) | GI50 (SK-OV-3): 3.72 µM (inactive) | GI50 (SNB-75): 2.4 µM (inactive) | GI50 (SR): 2.13 µM (inactive) | GI50 (TK-10): 1.98 µM (inactive) | GI50 (U-251): 1.78 µM (inactive) | GI50 (UACC-62): 1.95 µM (inactive)

Reference: ChEMBL document CHEMBL1201862, “PubChem BioAssay data set” (2004)
